From patent US8268961B2, “Antibacterial peptides and analogues thereof” (Universita Degli Studi di Siena, priority 2004, dated 2012)
Like-named read-outs stand apart in the source and are kept apart here. Positions of bridges follow the written chain, without caps; N, C: chain ends. Residues, ends and D or L forms follow the SMILES beside them. Chains are numbered I, II in the order given. No end group written: not given here.

How the values were obtained:
[1] = test system: Staphylococcus aureus ATCC 25923; format: cell-based; conditions: Staphylococcus aureus ATCC 25923, reference strain
Text: (§1) MIC is defined as the lowest concentration, in an antibiotic dilution range, that inhibits visible bacterial growth. The importance of MIC sensitivity test is based on the principle that in vitro sensitivity provides a predictive indication of the in vivo efficacy of the antibiotic therapy. Values are expressed as molar concentration and compared to MIC values obtained with commercially available antibiotics such as amikacin, ceftriaxone and levofloxacin (Table 3).
(§2) Reference strains (Escherichia coli ATCC 25922, Pseudomonas aeruginosa ATCC 27853, Staphylococus aureus ATCC 25923 and Chryseobacterium meningosepticum CCUG 4310) and several recent clinical isolates (including multidrug-resistant ones) of various species (Table 2) were used for conventional susceptibility testing experiments. Minimum Inhibitory Concentration (MIC) was determined by a standard microdilution assay as recommended by the National Commitee for Clinical Laboratory Standards (NCCLS) using cation-supplemented Mueller-Hinton (MH) broth (Oxoid Ltd. Basingstoke, UK) and a bacterial inoculum of 5×10^4 CFU per well, in a final volume of 100 μl. Results were recorded by visual inspection after 24 h of incubation at 37° C.

[2] = test system: Pseudomonas aeruginosa ATCC27853; format: cell-based
Text: as §1, §2

[3] = test system: Escherichia coli ATCC 25922; format: cell-based
Text: as §1, §2

E. coli strain TG1 = assay: Test of antibacterial activity (colony growth inhibition) on E. coli strain TG1; format: cell-based; conditions: E. coli TG1, colony counting vs control without peptide
Experimental: The antimicrobic activity of the peptides in linear form (L1, L4, L5, L6) and in MAP form (M1, M4, M5, M6) was assayed on the TG1 strain of E. coli. The peptides were incubated at various concentrations (2-1-0.5-0.25-0.12 mg/ml) with cells of E. coli (OD600=0.2) for about 1 hour at 37° C. Subsequently, the cells were plated on agar at dilution such to allow counting of individual colonies. The antimicrobic activity of the synthesised peptide L 1 and M1 is shown FIG. 1 and is compared to a non correlated MAP peptide (MNC) used as negative control.
In one example, the tetrabranched MAP peptides with the amino acid sequence: QAKIRVRLSA [SEQ ID NO: 2], KIRVRLSA [SEQ ID NO: 3], QKKIRVRLSA [SEQ ID NO: 4] are used individually in a bacterial colony growth inhibition test. The test is conducted by incubating different concentrations of MAP peptides with E. coli (strain TG1) and plating bacterial cells on agar at a dilution such to allow for individual colonies counting. The following day, the number of colonies grown after treatment with the three MAP peptides is compared.
Antimicrobic tests were conducted incubating for 75 min at 37° C., 25 μL of E. coli at the OD600 of 0.2 with 25 μl of MAP peptide dissolved in PBS at the various concentrations. The different incubations were further diluted 1:1000 in 2×TY medium and 100 μl were plated on solid 2×TY medium. The plates were left overnight at 30° C. and the individual grown colonies were counted and compared with a control, not treated with MAP peptide.

[4] = Stability to plasmatic protease (HPLC); format: in vitro ADME, human
Experimental: Since the use of peptides as therapeutic agents is severely limited by their in vivo half-life, the stability to human serum protease of the linear peptide L1 and of the MAP peptides M1, M4, M5 and M6 was evaluated. The peptides were incubated at the concentration of 10 mM with plasma and with human serum for 2 and 24 hours; the samples were subsequently analysed in HPLC on column C18 (see materials and methods) to evaluate the presence of linear and MAP peptide not digested by the protease.
The various peptides in MAP form and the linear peptide (L1) were dissolved in H2O at the concentration of 10 mM and incubated with 10 μl of plasma and human serum for 2 and 24 hours at 37° C. To each sample were added 150 μl of methanol to block the proteolytic reaction; each sample was then centrifuged at 13,000 rpm for 2 min and to the supernatant were added 0.75 ml of 0.1% trifluoroacetic acid. The samples were analysed in reverse phase HPLC on a Vydac C18 semi-preparative column using a 30 min gradient of buffer B from 20% to 95% (buffer A: 0.1% trifluoroacetic acid/water; buffer B: 0.1% trifluoroacetic acid/methanol), to evaluate the presence of linear and MAP peptide after the proteolytic treatment.

[5] = test system: E. coli plasmid vector pCEP4 DNA; assay: DNA binding assay (gel retardation); conditions: 200 ng pCEP4, 1% agarose gel, 1 h room temperature
Experimental: In an attempt to clarify the molecular mechanism of action, the authors examined the binding properties on DNA exerted by M6 dendrimeric peptide and magainin 2, an antimicrobial peptide which has a pore-forming activity on the cell membrane. The DNA binding abilities of M6 and magainin 2 were examined by analyzing the electrophoretic mobility of DNA bands at the various weight ratios of peptides to DNA on a 1% (w/v) agarose gel.
Gel-retardation experiments were performed by mixing 200 ng of the E. coli plasmid vector pCEP4 (Invitrogen) with increasing amounts of M6 peptide in 20 μl of binding buffer (5% glycerol, 10 mM Tris-HCl (pH 8.0), 1 mM EDTA, 1 mM DTT, 20 mM KCl and 50 μg/ml BSA). The reaction mixtures were incubated at room temperature for 1 h. Subsequently, 4 μl of native loading buffer was added (40% saccarose, 0.25% bromophenol blue) and an aliquot of 12 μl was applied to a 1% agarose gel electrophoresis in 1 mM Tris borate-EDTA buffer.

[6] = Pseudomonas aeruginosa ATCC27853, reference strain
[7] = Escherichia coli ATCC 25922, reference strain

NCC[C@H](O)C(=O)N[C@@H]1C[C@H](N)[C@@H](O[C@H]2O[C@H](CN)[C@@H](O)[C@H](O)[C@H]2O)[C@H](O)[C@H]1O[C@H]1O[C@H](CO)[C@@H](O)[C@H](N)[C@H]1O [AMIKACIN, amikacin, reference compound]
MIC (Molarity) [1]: 0.85 to 6.8 µM
MIC (Molarity) [2, 6]: 1.7 to 6.8 µM
MIC (Molarity) [3, 7]: 1.7 to 6.8 µM

CO/N=C(\C(=O)N[C@@H]1C(=O)N2C(C(=O)O)=C(CSc3nc(=O)c(=O)[nH]n3C)CS[C@H]12)c1csc(N)n1 [CEFTRIAXONE, ceftriaxone, reference compound]
MIC (Molarity) [1]: 0.054 to 0.21 µM
MIC (Molarity) [2, 6]: 1.7 to 14 µM
MIC (Molarity) [3, 7]: 14 to 110 µM

CC[C@H](C)[C@H](NC(=O)[C@H](CCCCN)NC(=O)[C@H](CCC(=O)O)NC(=O)[C@@H](N)CCC(N)=O)C(=O)N[C@@H](CCCNC(=N)N)C(=O)N[C@H](C(=O)N[C@@H](CCCNC(=N)N)C(=O)N[C@@H](CC(C)C)C(=O)N[C@@H](CO)C(=O)N[C@@H](C)C(N)=O)C(C)C [L1, QEKIRVRLSA] (H-QEKIRVRLSA-NH2; N-terminus assumed)
Antibacterial activity on E. coli TG1 colony growth (E. coli strain TG1): inhibited significantly
Resistance to plasmatic protease: Plasma 2 h [4]: +
Resistance to plasmatic protease: Plasma 24 h [4]: −

C[C@H]1COc2c(N3CCN(C)CC3)c(F)cc3c(=O)c(C(=O)O)cn1c23 [LEVOFLOXACIN, levofloxacin, reference compound]
MIC (Molarity) [1]: 0.022 to 16 µM
MIC (Molarity) [2, 6]: 0.16 to 1.3 µM
MIC (Molarity) [3, 7]: 1.3 to 11 µM

I: AKKIRVRLSAKKA-OH / II: AKKIRVRLSAK / III: AKKIRVRLSA / IV: AKKIRVRLSA (amide I:11-IV:C, I:12-II:C, II:11-III:C) [M31]
MIC (Molarity) [1]: >12 µM
MIC (Molarity) ([2]; ATCC27853): 3 µM
MIC (Molarity) ([3]; ATCC 25922): 3 µM

I: QKAIRVRLSAKKA-OH / II: QKAIRVRLSAK / III: QKAIRVRLSA / IV: QKAIRVRLSA (amide I:11-IV:C, I:12-II:C, II:11-III:C) [M33, QKAIRVRLSA]
MIC (Molarity) [1]: >12 µM
MIC (Molarity) [2, 6]: 1.5 µM
MIC (Molarity) [3, 7]: 1.5 µM

I: QKKARVRLSAKKA-OH / II: QKKARVRLSAK / III: QKKARVRLSA / IV: QKKARVRLSA (amide I:11-IV:C, I:12-II:C, II:11-III:C) [M34, QKKARVRLSA]
MIC (Molarity) [1]: >12 µM
MIC (Molarity) ([2]; ATCC27853): 12 µM
MIC (Molarity) [3, 7]: >12 µM

I: QKKIAVRLSAKKA-OH / II: QKKIAVRLSAK / III: QKKIAVRLSA / IV: QKKIAVRLSA (amide I:11-IV:C, I:12-II:C, II:11-III:C) [M35, QKKIAVRLSA]
MIC (Molarity) [1]: >12 µM
MIC (Molarity) ([2]; ATCC27853): 1.5 µM
MIC (Molarity) ([3]; ATCC 25922): 6 µM

I: QKKIRVALSAKKA-OH / II: QKKIRVALSAK / III: QKKIRVALSA / IV: QKKIRVALSA (amide I:11-IV:C, I:12-II:C, II:11-III:C) [M37]
MIC (Molarity) [1]: >12 µM
MIC (Molarity) ([2]; ATCC27853): 3 µM
MIC (Molarity) ([3]; ATCC 25922): 3 µM

I: QKKIRVRLAAKKA-OH / II: QKKIRVRLAAK / III: QKKIRVRLAA / IV: QKKIRVRLAA (amide I:11-IV:C, I:12-II:C, II:11-III:C) [M39, QKKIRVRLAA]
MIC (Molarity) [1]: >12 µM
MIC (Molarity) ([2]; ATCC27853): 3 µM
MIC (Molarity) ([3]; ATCC 25922): 3 µM

I: QKRIRVRLSAKKA-OH / II: QKRIRVRLSAK / III: QKRIRVRLSA / IV: QKRIRVRLSA (amide I:11-IV:C, I:12-II:C, II:11-III:C) [M29, QKRIRVRLSA]
MIC (Molarity) [1]: >12 µM
MIC (Molarity) ([2]; ATCC27853): 6 µM
MIC (Molarity) ([3]; ATCC 25922): 6 µM

I: QRKIRVRLSAKKA-OH / II: QRKIRVRLSAK / III: QRKIRVRLSA / IV: QRKIRVRLSA (amide I:11-IV:C, I:12-II:C, II:11-III:C) [M28]
MIC (Molarity) [1]: >12 µM
MIC (Molarity) [2, 6]: 0.76 µM
MIC (Molarity) [3, 7]: 0.38 µM

I: QRRIRVRLSAKKA-OH / II: QRRIRVRLSAK / III: QRRIRVRLSA / IV: QRRIRVRLSA (amide I:11-IV:C, I:12-II:C, II:11-III:C) [M30, QRRIRVRLSA]
MIC (Molarity) [1]: >12 µM
MIC (Molarity) ([2]; ATCC27853): 12 µM
MIC (Molarity) ([3]; ATCC 25922): 3 µM

QKKIRARLSA [M36]
MIC (Molarity) [1]: >12 µM
MIC (Molarity) [2, 6]: >12 µM
MIC (Molarity) [3, 7]: >12 µM

QKKIRVRASA [M38]
MIC (Molarity) [1]: >12 µM
MIC (Molarity) [2, 6]: >12 µM
MIC (Molarity) [3, 7]: >12 µM

magainin 2 [reference compound]
Weight ratio of peptide to DNA at which migration of DNA is inhibited [5]: 5
